Results: patent publication US8952042B2, “FXR (NR1H4) binding and activity modulating compounds” (Phenex Pharmaceuticals AG, priority 2009, dated 2015)

Legend:
[1] = attributed to trans-stilbene moiety, Akwabi-Ameyaw et al.; cited from earlier work
[2] = Pharmacokinetics in rat after intravenous administration 1 mg/kg; assay type: in vivo, Male Sprague Dawley Rat; conditions: rat
Experimental: Compounds were applied perorally by gavage at 5 mg/kg each and by i.v. Injection at 1 mg/kg each to male 12 weeks old C57BI/6J or Sprague Dawley rats and plasma concentrations of the test items were determined by LC-MS/MS after time points as indicated. In the case of Cynomolgus monkeys ([…]), the dose was adjusted to 12 mg/kg p.o., no i.v. injection was given (FIG. 1a, 1b and Table 2).
A solution of 2.5 mg/mL of each test item was produced by diluting them in the vehicle, 0.5% Hydroxypropyl-Methylcellulose (w/v) in 20 mM phosphate buffered saline pH 7.4. The solutions were stirred overnight at room temperature and heated to 40° C. for 10 minutes, resulting in fully homogenous suspension. The application was performed by administrating the solution perorally to the mice, with an application volume of 5 mL/kg. For each time point three mice or rats were used. In case of the Cynomolgus monkeys blood samples were obtained by repeated vein puncture. Blood samples were treated with L1-heparin during collection procedure and stored on ice until centrifugation at 645 g (5 min, 4° C.). Plasma was harvested and kept at −20° C. until being assayed. To 50 μL of plasma sample […] acetonitrile containing an internal standard was added. Samples were vigorously shaken and centrifuged for 10 minutes at 6000 g and 20° C. An aliquot of the particle-free supernatant was transferred to 200 μL sampler vials and subsequently subjected to LC MS/MS for quantification.

[3] = according to Akwabi-Ameyaw et al.; cited from earlier work
[4] = tested on: C57BLKS lepr^−/− db/db mice; test: Lipid lowering effects in db/db mice; assay type: in vivo, mouse; conditions: 3 days of dosing at 2×5 mg/kg/day
Experimental: Compounds were applied perorally by gavage at 2×5 mg/kg each to C57BLKS lepr^−/− db/db mice starting at the age of 12 weeks. Animals have been set on a High-Fat Diet (ssniff EF R/M 12330 with 59% (kcal) fat from Ssniff, Soest, Germany) for two weeks prior to start of gavage. Baseline blood was taken by retroorbital bleeding. Blood samples were treated with L1-heparin during collection procedure and stored on ice until centrifugation at 645 g (5 min, 4° C.). Plasma was harvested and kept at −20° C. until being assayed. Total triglycerides and total cholesterol were measured in a 3 μL aliquot of plasma using commercial kits LabAssay™ Triglyceride (Code No 290-63701) and LabAssay™ Cholesterol (Code No 294-65801) from Wako Diagnostics (Neuss, Germany). […]

[5] = UV photostability, irradiation at 254 nm, 1H NMR; assay type: physicochemical
Experimental: The compounds of interest were dissolved using ethanol and their UV spectrum was analyzed to determine their λmax to establish an irradiation wavelength to be used in the study (see FIG. 2). The best wavelength for testing the UV stability of the —CH═CH— double bond was determined to be 254 nm. Further material of the compounds was then dissolved in deuterated ethanol and the ^1H NMRs (400 MHz) analyzed (T=0). Each sample was then recovered from the NMR tube and subjected to UV irradiation (254 nm) for 4 h, 15 h and 70 h. At the respective timepoints the individual samples were re-analyzed by ^1H NMR and the signal for the —CH═CH— protons evaluated to assess the percent of remaining intact double bond. Other changes in the chemical shift signals were also analyzed for further changes on the overall structure of the molecules.

[6] = male, Sprague Dawley, plasma, iv, 1 mg/kg i.v.

For `CC(C)c1onc(-c2c(Cl)cccc2Cl)c1COc1ccc(/C=C/c2cccc(C(=O)O)c2)c(Cl)c1` [GW4064, reference compound], the ultraviolet light stability [1] is given as “instability”, the AUC(0-inf) [2, 6] is given as 294 ng·h/mL and the MRT last [2, 6] is given as 50.4 min. It also gave a Tmax [2, 6] of 4.98 min, a Vd [2, 6] of 5.98 L/kg and a half-life [2, 6] of 73.2 min. The concentration at 0.083 hr ([2]; male, Sprague Dawley, plasma, iv, 1 mg/kg i.v., 0.083 hr) was 405 ng/mL, the concentration at 0.25 hr ([2]; male, Sprague Dawley, plasma, iv, 1 mg/kg i.v., 0.25 hr) was 208 ng/mL and the concentration at 0.5 hr ([2]; male, Sprague Dawley, plasma, iv, 1 mg/kg i.v., 0.50 hr) was 124 ng/mL. For the same compound, the concentration at 1 hr ([2]; male, Sprague Dawley, plasma, iv, 1 mg/kg i.v., 1.00 hr) was 68.3 ng/mL, the concentration at 2 hr ([2]; male, Sprague Dawley, plasma, iv, 1 mg/kg i.v., 2.00 hr) was 25 ng/mL and the concentration at 4 hr ([2]; male, Sprague Dawley, plasma, iv, 1 mg/kg i.v., 4.00 hr) was 15 ng/mL. For the same compound, the Cmax ([2]; male, Sprague Dawley, plasma, 1 mg/kg i.v., footnote: Co for Intravenous) was 565 ng/mL, the AUC(0-t) ([2]; male, Sprague Dawley, plasma, iv, 1 mg/kg, read-out: #AUC(0-8)) was 268 ng·h/mL and the “AUC Extrapolated” value ([2]; 1 mg/kg i.v.) was 9.0%. The CI ([2]; 1 mg/kg i.v.) was 56.7083 mL/min/kg, the oral bioavailability [3] was “low” and the plasma exposure [3] was “low”. The plasma half life [3] was “short”, the “change in fasting blood glucose against vehicle” value [4] was −6% and the “behaviour in 1H NMR spectrum after prolonged UV irradiation” value ([5]; 70 h UV irradiation at 254 nm) was “major changes”. For the same compound, the “compound still present in the mixture (1H NMR integration)” value ([5]; 70 h UV irradiation at 254 nm, deuterated ethanol) was “less than 30%” and the compound decayed ([5]; after 70 h UV irradiation at 254 nm) was 70%.
